Source: US11034735B2, “Hybrid peptide, set of hybrid peptides, composition, uses of the hybrid peptide, method for inducing an immune response and kits” (priority 2017, dated 2021)

Legend:
mouse serum = experiment: Western blotting, synthetic peptides with serum of inoculated mice; conditions: in vivo
Protocol: (§1) The immunogenicity of each peptide was checked immunizing BALB/c mice, approximately six weeks old, with […] of protein (Machado et al., 1994). The mice were divided into groups of three animals each. The groups were: P28, P41, P42, P44, P50, P51, P53, P54, Pool (mice inoculated with a pool of peptides, in the case with all 8 hybrid peptides) and negative control group. For inoculations, the peptides were emulsified in Freund's complete adjuvant (Sigma) and inoculated intramuscularly in the quadriceps. Two further immunizations, on the 14th and 28th day after inoculation, were performed using incomplete Freund's adjuvant (Sigma). Each inoculation was carried out using 10 μg/mL of each peptide. Negative control mice were inoculated with sterile saline in place of the peptides and also emulsified in adjuvant. Blood samples were collected by intracardiac puncture on the 10th day after the last immunization and the sera obtained were stored at −20° C. until evaluated by Dot-ELISA and Western-blotting assays.
(§2) Samples of synthetic peptides were analyzed by Western blotting. To this end, initially, the samples were submitted to polyacrylamide gel electrophoresis under denaturing conditions, according to the technique recommended by Laemmli (1970). Based on the sample volume 2× concentrated sample buffer (250 mM Tris-HCl pH 6.8, 40% glycerol, 8% SDS, 20% β-mercaptoethanol and 0.008% bromophenol blue) was added. The samples were homogenized, incubated for 5 minutes at 100° C. and applied to the gel. The separation gel was prepared at a concentration of 12% polyacrylamide in buffer (1.875 M Tris, pH 8.8 and 1% SDS) and 5% polyacrylamide for buffer packaging gel (1.875 M Tris, pH 6.8 and 0.5% SDS). Electrophoresis was performed in Tris-Glycine Running Buffer (50 mM Tris, pH 8.6, 1.92 M Glycine and 1% SDS) at 100 V for up to 3 hours and 30 minutes at 0° C. in the Mini-Protean II system (Bio-Rad).
Synthetic peptides processed on the polyacrylamide gel (SDS-PAGE) were transferred to the nitrocellulose membrane for analysis by Wester blot (TOWBIN et al., 1979). The nitrocellulose membrane (Merck) was previously incubated in ice cold transfer buffer (0.58% Tris Base pH 8.3, 20% methanol and 0.29% glycine). For this, the membrane was placed in the “Mini Trans-Blot” (Bio-Rad) electrotransfer system containing the same buffer and the transfer was performed at 100 V for 90 minutes. The membrane was incubated in TBS-Tween (10 mM Tris-HCl pH 7.5; 150 mM NaCl, 0.05% Tween-20) plus 5% skim milk powder for 12 hours at 4° C. under low agitation, for saturation of non-specific binding sites. The membrane was then incubated with each serum from each mouse alone or incubated with calf serum for 2 hours at room temperature under slow stirring. […]

calf serum [1] = experiment: Western blotting, synthetic peptides with calf serum; format: in vivo; conditions: label = antigen on blot
Text: (§3) The immunogenicity of the synthetic peptides was verified by immunizing a previously tested calf with negative results for Anaplasma marginale, Babesia bovis and Babesia bigemina by serology and PCR. For inoculations, a peptide pool (SEQ ID NO: 20, SEQ ID NO: 21, SEQ ID NO: 23, SEQ ID NO: 25 and SEQ ID NO: 26) was emulsified in Freund's complete adjuvant (Sigma) and, inoculated intramuscularly in the quadriceps. Two further immunizations, on the 14th and 28th day after inoculation, were performed using incomplete Freund's adjuvant (Sigma). Each inoculation was done using 100 μg/mL of each peptide. Blood samples were collected by jugular puncture on the 10th day after the last immunization and the sera obtained were stored at −20° C. until evaluated by Dot-ELISA and Western-blotting assays.
as §2
Synthetic peptides processed on the polyacrylamide gel (SDS-PAGE) were transferred to the nitrocellulose membrane for analysis by Wester blot (TOWBIN et al., 1979). The nitrocellulose membrane (Merck) was previously incubated in ice cold transfer buffer (0.58% Tris Base pH 8.3, 20% methanol and 0.29% glycine). For this, the membrane was placed in the “Mini Trans-Blot” (Bio-Rad) electrotransfer system containing the same buffer and the transfer was performed at 100 V for 90 minutes. The membrane was incubated in TBS-Tween (10 mM Tris-HCl pH 7.5; 150 mM NaCl, 0.05% Tween-20) plus 5% skim milk powder for 12 hours at 4° C. under low agitation, for saturation of non-specific binding sites. The membrane was then incubated with each serum from each mouse alone or incubated with calf serum for 2 hours at room temperature under slow stirring. It was then subjected to three consecutive 10-minute washes with the same solution under slow agitation. […]

[2] = system: bovine serum serologically positive / negative / vaccinated for A. marginale; experiment: Dot-ELISA, synthetic peptides with sera of cattle serologically positive, negative or vaccinated for A. marginale; format: binding; conditions: peptide as antigen
Protocol: (§4) Synthetic peptides were used as antigen in the Dot-ELISA technique to verify their ability to react with specific antibodies present in the serum of BALB/c mice, as well as in calf serum, all immunized. The technique was performed as described by Machado et al. (1994), with minor modifications. Briefly, small nitrocellulose discs were cut using a paper punch and each disc arranged in a flat bottom 24-well culture plate well. 4 μg/mL of each synthetic peptide alone, as well as the peptide pool, were deposited on each disc. The discs were dried at room temperature and then blocked for 12 hours at room temperature with […] TBS buffer (0.1 M Tris, 0.1 M NaCl and 0.5% Tween 20; TBS-Tween 20), plus 5% skim milk powder. Test sera were diluted 1:25 (mice and calf) in TBS-Tween 20 containing 5% skim milk powder and incubated for 120 minutes at room temperature and under constant stirring. Then the discs were subjected to two washes with TBS-Tween 20 plus 5% skim milk powder and one wash with TBS-Tween 20 (5 min interval between each wash). To each mouse serum disc was added the alkaline phosphate-coupled anti-mouse conjugate (anti-mouse IgG goat IgG, Sigma A-3562) diluted 1:30,000 in TBS-Tween 20 plus 5% of skim milk powder. To calf serum-containing discs, it was added alkaline phosphate-coupled anti-bovine conjugate (anti-cattle IgG rabbit IgG, Sigma A-0705) diluted 1:30,000 in TBS-Tween 20, plus 5% skim milk powder. After one hour incubation with the appropriate conjugates, washes were followed as in the previous step.

calf serum [3] = experiment: Dot-ELISA, synthetic peptides with serum of calf immunized with peptide pool; format: in vivo; set-up: key to Peptide Reactivity, Calf serum inoculated with pool: — = Did not react; X = Reacted; conditions: for Peptide Reactivity, Calf serum inoculated with pool: Dot-ELISA, peptide as antigen, calf inoculated with pool SEQ ID NO: 20, 21, 23, 25, 26; for Dot-ELISA reaction of calf serum inoculated with the peptide pool with the antigen: label = antigen on disc
Text: as §3, §4

serum of BALB/c mice = experiment: Dot-ELISA, synthetic peptides with serum of immunized BALB/c mice; format: in vivo; set-up: key to Peptide Reactivity, Mice serum inoculated with isolated peptides 1 / Peptide Reactivity, Mice serum inoculated with isolated peptides 2 / Peptide Reactivity, Mice serum inoculated with isolated peptides 3 / Peptide Reactivity, Mice serum inoculated with pool / Peptide Reactivity, Mice serum inoculated with Saline (Negative Control) / Reaction with pool of peptides, Mouse 1 serum / Reaction with pool of peptides, Mouse 2 serum / Reaction with pool of peptides, Mouse 3 serum: — = Did not react; X = Reacted; conditions: for Peptide Reactivity, Mice serum inoculated with pool / Peptide Reactivity, Mice serum inoculated with isolated peptides 1 / Peptide Reactivity, Mice serum inoculated with isolated peptides 2 / Peptide Reactivity, Mice serum inoculated with isolated peptides 3 / Peptide Reactivity, Mice serum inoculated with Saline (Negative Control) / Reaction with pool of peptides, Mouse 1 serum / Reaction with pool of peptides, Mouse 2 serum / Reaction with pool of peptides, Mouse 3 serum: Dot-ELISA; for Peptide Reactivity, Mice serum inoculated with pool / Peptide Reactivity, Mice serum inoculated with isolated peptides 1 / Peptide Reactivity, Mice serum inoculated with isolated peptides 2 / Peptide Reactivity, Mice serum inoculated with isolated peptides 3 / Peptide Reactivity, Mice serum inoculated with Saline (Negative Control) / Dot-ELISA reaction of sera from mice inoculated with hybrid peptides alone / Dot-ELISA reaction of mouse sera inoculated with the peptide pool: peptide as antigen; for Peptide Reactivity, Mice serum inoculated with pool: mice inoculated with pool of all 8 hybrid peptides; for Peptide Reactivity, Mice serum inoculated with isolated peptides 1: serum of mouse 1 inoculated with the same isolated peptide; for Peptide Reactivity, Mice serum inoculated with isolated peptides 1 / Peptide Reactivity, Mice serum inoculated with isolated peptides 2 / Peptide Reactivity, Mice serum inoculated with isolated peptides 3: serum 1:25; for Peptide Reactivity, Mice serum inoculated with isolated peptides 2: serum of mouse 2 inoculated with the same isolated peptide; for Peptide Reactivity, Mice serum inoculated with isolated peptides 3: serum of mouse 3 inoculated with the same isolated peptide; for Peptide Reactivity, Mice serum inoculated with Saline (Negative Control): serum of saline-inoculated mice; for Reaction with pool of peptides, Mouse 1 serum / Reaction with pool of peptides, Mouse 2 serum / Reaction with pool of peptides, Mouse 3 serum: pool of peptides as antigen; for Reaction with pool of peptides, Mouse 1 serum: serum of mouse 1 inoculated with the labelled peptide; for Reaction with pool of peptides, Mouse 2 serum: serum of mouse 2 inoculated with the labelled peptide; for Reaction with pool of peptides, Mouse 3 serum: serum of mouse 3 inoculated with the labelled peptide; for Dot-ELISA reaction of mouse sera inoculated with the peptide pool: pool of all 8 hybrid peptides
Protocol: as §1, §4

Sequence | Western blotting reaction of serum of mice inoculated with synthetic peptide (mouse serum) | Western blotting reactivity of calf serum inoculated with the peptide pool (calf serum [1]) | Reaction of sera from serologically positive cattle for A. marginale with synthetic peptide [2] | Reaction of sera from vaccinated cattle for A. marginale with synthetic peptide [2] | Peptide Reactivity, Calf serum inoculated with pool (calf serum [3]) | Dot-ELISA reaction of calf serum inoculated with the peptide pool with the antigen (calf serum [3]) | Peptide Reactivity, Mice serum inoculated with pool (serum of BALB/c mice) | Peptide Reactivity, Mice serum inoculated with isolated peptides 1 (serum of BALB/c mice) | Peptide Reactivity, Mice serum inoculated with isolated peptides 2 (serum of BALB/c mice) | Peptide Reactivity, Mice serum inoculated with isolated peptides 3 (serum of BALB/c mice) | Peptide Reactivity, Mice serum inoculated with Saline (Negative Control) (serum of BALB/c mice) | Reaction with pool of peptides, Mouse 1 serum (serum of BALB/c mice) | Reaction with pool of peptides, Mouse 2 serum (serum of BALB/c mice) | Reaction with pool of peptides, Mouse 3 serum (serum of BALB/c mice) | Dot-ELISA reaction of sera from mice inoculated with hybrid peptides alone (serum of BALB/c mice) | Dot-ELISA reaction of mouse sera inoculated with the peptide pool (serum of BALB/c mice)
GASTDDAAAAAKIVAMAYGRGGGGGASSVDALTATKLVAAALGH (Synthetic hybrid peptide) [P44] | reacted | showed reactivity | reacted | reacted | X | reacted | — | X | X | X | — | — | — | — | reacted | 
LAESTEGNLEEVWILGKGGGGFSESMKALIKKYVDTSKPTIYVDQGTVMKV (Synthetic hybrid peptide) [P51] |  | showed reactivity |  |  | X | reacted | X | — | X | X | — | — | X | — | reacted | reacted
SECVSLQPTDSSSASGQQQEGGGGLQGHMIDAVLETAINSDIPGVLRAIVSRDV (Synthetic hybrid peptide) [P54] | reacted |  | reacted |  | — |  | X | X | X | X | — | — | X | — | reacted | reacted
SKVASVEYILAARGGGGQVDRLANALGK (Synthetic hybrid peptide) [P28] |  |  | reacted | reacted | — |  | — | — | — | — | — | — | X | — |  | reacted
SKVASVEYILAARGGGGQVDRLANALGKGGGGAMGDSVHWKVKPVDNKLFIMP (Synthetic hybrid peptide) [P53] | reacted | showed reactivity | reacted |  | X | reacted | X | — | — | — | — | X | X | X |  | reacted
SSVSSQSDQASTSSQLGGGGAMGDSVHWKVKPVDNKLFIMP (Synthetic hybrid peptide) [P41] |  | showed reactivity |  |  | X | reacted | — | — | — | — | — | — | — | — |  | 
